“Also recorded” adds a separate entry of the source. Bridge positions count the residues as written; N and C are the ends. Peptide text beside a SMILES is read from it.
Experiments:
[1] = system: Ca^2+ influx in Jurkat T cells; assay: Live cell Ca^2+ imaging (Fura-2) in Jurkat T cells; type: cell-based, human; conditions: for inhibition of Ca^2+ influx / free calcium concentration (in words): 10 μM Ktx-Sp2, 3 min pre-treatment, 10 μM CPA, then 2 mM Ca^2+
Method: Jurkat T cells were loaded with 4 μM Fura-2 AM (Life Technologies) for 60 min at 37 °C. Cells were then washed 3 times and incubated in Hank’s Balanced Salt Solution (HBSS) for 30 min at room temperature before use. Fluorescence at 340 nm and 380 nm excitation wavelengths was recorded on an inverted Nikon Ti-E microscope equipped with 340, 360 and 380 nm excitation filter wheels using NIS-Elements imaging software (Nikon Instruments Inc., Melville, NY, USA). Fura-2 ratios (F340/F380) reflect changes in [Ca^2+]i upon stimulation. Data were obtained from 100 to 250 cells in time-lapse images from each coverslip.
To test this hypothesis we performed live cell Ca^2+ imaging using the Ca^2+ indicator dye Fura-2 to determine the effect of Ktx-Sp2 on [Ca^2+]i in the presence of intracellular Ca^2+ store depletion by cyclopiazonic acid (CPA), an inhibitor of the sarcoplasmic reticulum Ca^2+-ATPase. […] When 2 mM Ca^2+ was added to the Ca^2+-free HBSS, we observed a large Ca^2+ influx into the cells. […] At 10 μM, Ktx-Sp2 decreased the F340/F380 ratio from 0.14 ± 0.02 to 0.05 ± 0.01 (n = 278) (Fig. 5b).

mKv1.3 = biological target: T1, mKv1.3 (Mus musculus, UniProt P16390); assay: Whole-cell patch-clamp, exogenous Kv1.3 in HEK293T cells; type: cell-based
T1 construct: expressed in transfected cells; host or cells: HEK293T, vector pIRES2-EGFP (bicistronic, EGFP not fused)
Method: (§1) Mouse spinal columns were removed and placed in ice cold HBSS, then laminectomies were performed and bilateral DRG were dissected out. After removal of connective tissues, DRG were transferred to a 1 ml Ca^2+/Mg^2+-free HBSS containing 2 μl saturated NaHCO3, 0.35 mg L-cysteine and 20 U papain (Worthington, Lakewood, NJ, USA), and incubated at 37 °C for 10 min. The suspension of DRG was centrifuged, the supernatant was removed, 1 ml Ca^2+/Mg^2+-free HBSS containing 4 mg collagenase type II and 1.25 mg dispase type II (Worthington) was added and incubated at 37 °C for 10 min. After digestion, neurons were pelleted, suspended in neurobasal medium containing 2% B-27 supplement, 1% L-glutamine, 100 U/ml penicillin plus 100 μg/ml streptomycin, and 50 ng/ml nerve growth factor, plated on a 12 mm coverslip coated with poly-L-lysine (10 μg/ml) and cultured under a humidified atmosphere of 5% CO2/95% air at 37 °C for 18–24 h before use. Jurkat E6-1 T cells (ATCC TIB152) and HEK293T cells (ATCC ACS4500) were maintained in RPMI medium 1640 (Invitrogen, Carlsbad, CA, USA) and Dulbecco’s modified Eagle’s medium (DMEM) (Life Technologies,GrandIsland, NY, USA), supplemented with 10% fetal bovine serum (Life Technologies), 100 units/ml penicillin, 100 μg/ml streptomycin, respectively. Cells were cultured in a humidified incubator at 37 °C with 5% CO2. […]

mNav1.4 = assay: Whole-cell patch-clamp, exogenous Nav1.4 in HEK293T cells; type: cell-based; conditions: 1 μM, +10 mV 100 ms pulse from -60 mV every 10 s
Method: as §1

[2] = system: IL-2 secretion from Jurkat T cells; assay: IL-2 secretion from ConA-activated Jurkat T cells (ELISA); type: cell-based, human; conditions: ConA 10 μg/ml; for ConA-induced IL-2 secretion (in words): Ktx-Sp2 10 nM, 100 nM, 1 μM and 10 μM, 24 h, ELISA at 450 nm, n = 6, ***P < 0.0001
Method: IL-2 secretion from Jurkat T cells was measured using an ELISA kit (eBioscience, San Diego, CA, USA) following manufacturer’s instructions. Cells were centrifuged at 1500 rpm for 10 min, and the supernatants were collected to measure IL-2 concentrations. Reactions were performed in 96-well plates coated with the capture antibody and stopped with phosphoric acid (1 M). Absorbance was measured at 450 nm. Each experiment was repeated at least three times in duplicate.
The cytokine IL-2 is predominantly secreted from activated T cells and is critical in regulating the balance between immune tolerance and autoimmunity. The secretion of IL-2 is driven by a rise of [Ca^2+]i. Since Ktx-Sp2 potently suppresses Kv1.3 function and decreases Ca^2+ influx in Jurkat T cells we next asked whether Ktx-Sp2 could inhibit IL-2 secretion, which should result in functional immunosuppression. As a classical polyclonal stimulator acting through T-cell receptor complex (TCR)-CD3 complex, ConA has been used to induce T cell activation and stimulate IL-2 secretion, which is dependent on an increase of [Ca^2+]i. We thus used the ConA-stimulated IL-2 secretion in the growth media as readout.
Fig. 6 Ktx-Sp2 inhibits IL-2 secretion from activated Jurkat T cells. The concentrations of IL-2 in cell growth media were measured by ELISA. Jurkat T cells were activated by ConA (10 μg/ml) for 24 h. Ktx-Sp2 (10 nM, 100 nM, 1 μM and 10 μM) were added simultaneously with ConA. ***P < 0.0001, n = 6

[3] = biological target: T2, endogenous Kv1.3 expressed by human Jurkat T cells (Homo sapiens, UniProt P22001); assay: Whole-cell patch-clamp, endogenous Kv1.3 in Jurkat T cells; type: cell-based
T2 construct: endogenous Kv1.3 expressed by human Jurkat T cells; host or cells: Jurkat E6-1 T cells
Method: (§2) Mouse spinal columns were removed and placed in ice cold HBSS, then laminectomies were performed and bilateral DRG were dissected out. After removal of connective tissues, DRG were transferred to a 1 ml Ca^2+/Mg^2+-free HBSS containing 2 μl saturated NaHCO3, 0.35 mg L-cysteine and 20 U papain (Worthington, Lakewood, NJ, USA), and incubated at 37 °C for 10 min. The suspension of DRG was centrifuged, the supernatant was removed, 1 ml Ca^2+/Mg^2+-free HBSS containing 4 mg collagenase type II and 1.25 mg dispase type II (Worthington) was added and incubated at 37 °C for 10 min. After digestion, neurons were pelleted, suspended in neurobasal medium containing 2% B-27 supplement, 1% L-glutamine, 100 U/ml penicillin plus 100 μg/ml streptomycin, and 50 ng/ml nerve growth factor, plated on a 12 mm coverslip coated with poly-L-lysine (10 μg/ml) and cultured under a humidified atmosphere of 5% CO2/95% air at 37 °C for 18–24 h before use. Jurkat E6-1 T cells (ATCC TIB152) and HEK293T cells (ATCC ACS4500) were maintained in RPMI medium 1640 (Invitrogen, Carlsbad, CA, USA) and Dulbecco’s modified Eagle’s medium (DMEM) (Life Technologies,GrandIsland, NY, USA), supplemented with 10% fetal bovine serum (Life Technologies), 100 units/ml penicillin, 100 μg/ml streptomycin, respectively. Cells were cultured in a humidified incubator at 37 °C with 5% CO2. The cDNAs encoding mKv1.1, mKv1.2, mKv1.3, mNav1.4, mNav1.5 and mNav1.7 were subcloned into the XhoI/BamHI sites of a bicistronic vector, pIRES2-EGFP (Clontech, USA), then transiently transfected into HEK293-T cells using Lipofectamine 2000 (Invitrogen) for electrophysiological experiments.
(§3) Whole-cell patch-clamp recordings were performed using an EPC 9 amplifier (HEKA Elektronik, Lambrecht/Pfalz, Germany) at room temperature (22–24 °C). Pipettes pulled from borosilicate glass (BF 150-86-10; Sutter Instrument Company, Novato, CA, USA) had resistances of 2–4 MΩ when filled with the internal solution. The internal pipette solution for recording Kv currents contained: KCl 140 mM, MgCl2 1 mM, EGTA 1 mM, Na2ATP 3 mM, HEPES 10 mM (pH 7.3 with KOH); for recording Na currents contained: CsCl 100 mM, CsF 40 mM, MgCl2 2 mM, HEPES 10 mM, EGTA 10 mM, D-Glucose 10 mM, Na2ATP 3 mM (pH 7.3 with CsOH). The external solution for recording Kv currents contained: KCl 5 mM, NaCl 140 mM, HEPES 10 mM, CaCl2 2 mM, MgCl2 1 mM, D-Glucose 10 mM (pH 7.4 with NaOH); for recording Na currents contained: NaCl 132 mM, KCl 5.4 mM, CaCl2 1.8 mM, MgCl2 0.8 mM, HEPES 10 mM, D-Glucose 5 mM (pH 7.4 with NaOH). Kv currents were elicited by + 50 mV, 400 ms depolarizing pulse from the holding potential of − 60 mV every 20 s, and Na currents were elicited by + 10 mV, 100 ms depolarizing pulse from the holding potential of − 60 mV every 10 s. […]

mKv1.2 = biological target: T3, mKv1.2 (Mus musculus, UniProt P63141); assay: Whole-cell patch-clamp, exogenous Kv1.2 in HEK293T cells; type: cell-based
T3 construct: expressed in transfected cells; host or cells: HEK293T, vector pIRES2-EGFP (bicistronic, EGFP not fused)
Method: as §2, §3

mKv1.1 = biological target: T4, mKv1.1 (Mus musculus, UniProt P16388); assay: Whole-cell patch-clamp, exogenous Kv1.1 in HEK293T cells; type: cell-based
T4 construct: expressed in transfected cells; host or cells: HEK293T, vector pIRES2-EGFP (bicistronic, EGFP not fused)
Method: as §2
Whole-cell patch-clamp recordings were performed using an EPC 9 amplifier (HEKA Elektronik, Lambrecht/Pfalz, Germany) at room temperature (22–24 °C). Pipettes pulled from borosilicate glass (BF 150-86-10; Sutter Instrument Company, Novato, CA, USA) had resistances of 2–4 MΩ when filled with the internal solution. […]

[4] = system: endogenous sodium channels expressed by DRG neurons; assay: Whole-cell patch-clamp, endogenous sodium channels of DRG neurons; type: cell-based, mouse; conditions: 1 μM; +10 mV 100 ms pulse from -60 mV every 10 s
Method: as §1

mNav1.5 = assay: Whole-cell patch-clamp, exogenous Nav1.5 in HEK293T cells; type: cell-based; conditions: 1 μM, +10 mV 100 ms pulse from -60 mV every 10 s
Method: as §1

mNav1.7 = assay: Whole-cell patch-clamp, exogenous Nav1.7 in HEK293T cells; type: cell-based; conditions: 1 μM, +10 mV 100 ms pulse from -60 mV every 10 s
Method: as §1

[5] = +50 mV 400 ms pulse from -60 mV every 20 s, room temperature (22–24 °C), mean ± SEM

T3 sequence (P63141 whole entry, the tested form may be a part): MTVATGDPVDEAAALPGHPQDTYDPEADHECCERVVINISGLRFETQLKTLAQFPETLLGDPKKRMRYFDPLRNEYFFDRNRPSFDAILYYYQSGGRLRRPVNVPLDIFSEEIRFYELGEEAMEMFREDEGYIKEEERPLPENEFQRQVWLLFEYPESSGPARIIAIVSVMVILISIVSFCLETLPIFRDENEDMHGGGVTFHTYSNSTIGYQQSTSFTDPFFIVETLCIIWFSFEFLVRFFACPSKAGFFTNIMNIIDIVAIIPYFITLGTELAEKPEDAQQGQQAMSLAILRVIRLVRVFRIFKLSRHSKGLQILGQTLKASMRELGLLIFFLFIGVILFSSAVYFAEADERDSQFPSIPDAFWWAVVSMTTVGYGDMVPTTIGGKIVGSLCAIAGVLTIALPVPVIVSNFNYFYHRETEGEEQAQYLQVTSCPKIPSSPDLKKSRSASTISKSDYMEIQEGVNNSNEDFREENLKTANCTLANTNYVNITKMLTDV
T1 sequence (P16390 whole entry, the tested form may be a part): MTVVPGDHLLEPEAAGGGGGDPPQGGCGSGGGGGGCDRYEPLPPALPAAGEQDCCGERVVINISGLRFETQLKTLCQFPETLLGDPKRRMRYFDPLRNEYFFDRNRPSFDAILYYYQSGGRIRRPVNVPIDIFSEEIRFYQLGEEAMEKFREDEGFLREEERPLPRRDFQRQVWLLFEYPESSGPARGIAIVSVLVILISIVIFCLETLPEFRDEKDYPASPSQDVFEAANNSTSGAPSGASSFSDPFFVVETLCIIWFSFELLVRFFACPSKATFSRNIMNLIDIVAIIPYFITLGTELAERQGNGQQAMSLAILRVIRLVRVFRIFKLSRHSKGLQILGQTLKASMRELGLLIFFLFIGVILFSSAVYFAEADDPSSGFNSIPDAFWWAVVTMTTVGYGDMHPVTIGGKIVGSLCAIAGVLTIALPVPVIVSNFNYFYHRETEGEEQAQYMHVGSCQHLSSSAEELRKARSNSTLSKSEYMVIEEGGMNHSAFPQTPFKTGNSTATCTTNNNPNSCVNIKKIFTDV
T4 sequence (P16388 whole entry, the tested form may be a part): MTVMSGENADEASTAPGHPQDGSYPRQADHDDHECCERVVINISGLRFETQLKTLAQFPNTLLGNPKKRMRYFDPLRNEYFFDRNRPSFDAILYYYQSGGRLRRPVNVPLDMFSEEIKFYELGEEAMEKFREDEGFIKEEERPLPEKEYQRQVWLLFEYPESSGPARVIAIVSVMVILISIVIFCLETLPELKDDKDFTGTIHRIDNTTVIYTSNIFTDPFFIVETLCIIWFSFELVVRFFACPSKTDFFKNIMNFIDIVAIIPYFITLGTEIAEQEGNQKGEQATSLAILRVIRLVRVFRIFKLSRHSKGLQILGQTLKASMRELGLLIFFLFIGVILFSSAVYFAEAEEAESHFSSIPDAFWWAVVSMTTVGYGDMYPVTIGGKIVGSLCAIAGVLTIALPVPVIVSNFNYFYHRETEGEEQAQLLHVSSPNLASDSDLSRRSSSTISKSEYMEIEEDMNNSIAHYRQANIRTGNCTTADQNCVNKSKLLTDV
T2 sequence (P22001 whole entry): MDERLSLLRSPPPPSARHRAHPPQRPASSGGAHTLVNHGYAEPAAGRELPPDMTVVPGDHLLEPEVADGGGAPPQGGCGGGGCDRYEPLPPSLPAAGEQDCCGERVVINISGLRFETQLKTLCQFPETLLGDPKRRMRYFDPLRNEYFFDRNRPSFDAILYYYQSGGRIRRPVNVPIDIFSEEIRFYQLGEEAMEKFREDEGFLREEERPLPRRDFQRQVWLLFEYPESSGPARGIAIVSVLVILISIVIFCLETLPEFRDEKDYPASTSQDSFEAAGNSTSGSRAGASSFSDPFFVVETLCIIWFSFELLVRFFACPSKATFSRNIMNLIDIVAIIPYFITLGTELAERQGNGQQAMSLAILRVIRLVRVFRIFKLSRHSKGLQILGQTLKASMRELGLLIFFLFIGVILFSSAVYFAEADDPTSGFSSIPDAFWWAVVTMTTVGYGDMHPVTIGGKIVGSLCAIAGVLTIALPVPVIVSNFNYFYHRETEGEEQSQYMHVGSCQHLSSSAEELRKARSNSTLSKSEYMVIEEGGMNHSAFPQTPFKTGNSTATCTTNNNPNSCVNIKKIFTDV

Compound: CSCC[C@@H]1NC(=O)[C@@H]2CSSC[C@H](NC(=O)[C@H](CCCCN)NC(=O)[C@H](C)NC(=O)CNC(=O)[C@H](Cc3c[nH]cn3)NC(=O)[C@H](CC(C)C)NC(=O)[C@@H]3CCCN3C(=O)[C@@H](N)CO)C(=O)N[C@@H](CO)C(=O)N[C@@H](CO)C(=O)N[C@@H](CO)C(=O)N[C@@H](CC(N)=O)C(=O)N[C@@H](CCC(N)=O)C(=O)N[C@H]3CSSC[C@H](NC(=O)[C@H](CCCNC(=N)N)NC(=O)CNC(=O)[C@H](CC(N)=O)NC1=O)C(=O)N[C@@H](CCCNC(=N)N)C(=O)N[C@H](C(=O)N[C@@H](Cc1ccc(O)cc1)C(=O)NCC(=O)O)CSSC[C@H](NC(=O)[C@@H]1CCCN1C(=O)[C@H](CCCNC(=N)N)NC(=O)[C@H]([C@@H](C)O)NC3=O)C(=O)N[C@@H](CCCNC(=N)N)C(=O)N[C@@H](Cc1ccc(O)cc1)C(=O)NCC(=O)NCC(=O)NCC(=O)N[C@@H]([C@@H](C)O)C(=O)N[C@@H](Cc1c[nH]cn1)C(=O)NCC(=O)N[C@@H](CCCCN)C(=O)N2 [Ktx-Sp2] (H-SPLHGAKCSSSNQCTRPCRYGGGTHGKCMNGRCRCYG-OH; disulfide 8-28, 14-33, 18-35 (inferred); N-terminus and C-terminus assumed)
- inhibition of Ca^2+ influx / free calcium concentration (in words) [1]: significantly reduce the free calcium concentration in Jurkat T cells; also recorded: obvious inhibition of Ca^2+ influx
- inhibition of Ca^2+ influx / free calcium concentration (in words) ([1]; listed as Ktx-sp2): effectively reduce the concentration of free Ca^2+ in Jurkat T cells
- F340/F380 ratio (net change induced by 2 mM extracellular Ca^2+) ([1]; 10 μM Ktx-Sp2, pre-treatment 3 min, store depletion by 10 μM CPA, decreased from 0.14 ± 0.02 without peptide, n = 278, ****P ≤ 0.0001): 0.05 ± 0.01
- IC50 (mKv1.3; +50 mV 400 ms pulse from -60 mV every 20 s, room temperature (22–24 °C), mean ± SEM, n = 8, read-out: IC50 for mKv1.3-mediated currents): 14.7 ± 1.98 nM
- blocking of Kv1.3 (in words) (mKv1.3; exogenous channel): the blocking activity for Kv1.3 was relatively high; also recorded: the blocking activity on Kv1.3 channel is the strongest
- effect on Nav1.4 (mNav1.4): almost had no effect
- activation of Jurkat T cells (in words) [2]: inhibit the activation of Jurkat T cells
- activation of Jurkat T cells (in words) ([2]; listed as Ktx-sp2): inhibiting the activation effect of ConA on Jurkat T cells
- ConA-induced IL-2 secretion (in words) [2]: reduce the release of inflammatory cytokines IL-2; also recorded: significantly reduced ConA-induced IL-2 secretion in a concentration-dependent manner
- ConA-induced IL-2 secretion (in words) ([2]; listed as Ktx-sp2): significantly reducing the release of inflammatory cytokine IL-2
- blocking of endogenous Kv1.3 in Jurkat T cells (in words) [3]: effectively block endogenous Kv1.3; also recorded: equivalent to the exogenous expression Kv1.3 on the HEK293T cell membrane
- reduction of Kv1.3 current ([3]; 30 nM, bath application, n = 5, +50 mV 400 ms pulse from -60 mV, almost zero cytosolic Ca^2+): about 50%
- IC50 ([3]; +50 mV 400 ms pulse from -60 mV, almost zero cytosolic Ca^2+, currents normalized to control, Hill equation, read-out: IC50 for Kv1.3 current in Jurkat T cells): 29.1 ± 1.12 nM
- reversibility of suppressive effect on Kv1.3 current after washout ([3]; bath application, washout): partially reversible after washout
- IC50 (mKv1.2; [5]): 56.9 ± 2.32 nM
- blocking activity on Kv1.3 relative to Kv1.2 (Discussion) (mKv1.2; Discussion section): 4 times
- blocking activity on Kv1.2 channel (rounded, Discussion) (mKv1.2; electrophysiology): about 57 nM
- blocking of Kv1.2 (in words) (mKv1.2; exogenous channel): effectively block; also recorded: high blocking activity
- IC50 (mKv1.1; [5]): 485 ± 25.5 nM
- blocking activity on Kv1.3 relative to Kv1.1 (Discussion) (mKv1.1; Discussion section): 33 times
- blocking of Kv1.1 (in words) (mKv1.1; exogenous channel): effectively block
- effect on endogenous sodium channels of DRG neurons [4]: almost had no effect
- effect on Nav1.5 (mNav1.5): almost had no effect
- effect on Nav1.7 (mNav1.7): almost had no effect

From publication PMC6915869, “Immunosuppressive effects of a novel potassium channel toxin Ktx-Sp2 from Scorpiops Pocoki” (Cell & Bioscience, 2019)
